For assay [1], the target named is T1, human angiotensin II type 1 receptor (hAT1R) (Homo sapiens, UniProt P30556).
T1 construct: we applied the DNA display system to in vitro selection of peptide ligands for a full-length GPCR expressed on whole cells; polyhistidine (C); expressed in transfected cells
T1 sequence (P30556 1-359): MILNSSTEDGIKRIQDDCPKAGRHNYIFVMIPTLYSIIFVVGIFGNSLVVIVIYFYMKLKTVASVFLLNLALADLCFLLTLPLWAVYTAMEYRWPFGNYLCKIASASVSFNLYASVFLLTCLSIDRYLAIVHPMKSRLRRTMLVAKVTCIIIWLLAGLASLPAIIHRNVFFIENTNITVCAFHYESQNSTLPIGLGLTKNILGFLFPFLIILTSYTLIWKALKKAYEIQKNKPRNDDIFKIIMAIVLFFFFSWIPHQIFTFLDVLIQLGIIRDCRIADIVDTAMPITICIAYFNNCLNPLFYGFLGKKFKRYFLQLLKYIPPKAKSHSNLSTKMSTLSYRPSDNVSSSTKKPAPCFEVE
The experiment in a line: Competitive binding assay at various concentrations of synthetic peptides (IC50). To be noted: streptavidin-fused Ang II on hAT1R/CHO-K1 cells competed by 0–200 nM synthetic peptide; 10 min room temperature; quantitative Western blot (Fig. S1). Here is the method: Streptavidin-fused peptides for selected clones were prepared separately by using the PURE system classic II kit with 20 nM DNA for 1 h at 37°C. The streptavidin-fused peptides were incubated with the hAT1R-expressing cells for 10 min at room temperature in the presence 0–200 nM synthetic peptides (see next section) as competitors, and washed as described in the previous section. Then the binding proteins were recovered using 0.5 ml of lysis buffer (1% protease inhibitor cocktail and 4 M urea) on ice for 30 min. The cell lysates were analyzed by 15% SDS-PAGE and Western blot analysis using anti-T7·tag antibody (Novagen) followed by HRP-conjugated secondary antibody (Chemicon). The streptavidin-fused peptides with T7·tag were quantitatively detected by an ECL chemiluminescence kit and Hyperfilm ECL (GE Healthcare).
Supplementary file pone.0030084.s001.pdf: Figure S1 Competition curves for selected peptides. […] For details, see MATERIALS AND METHODS. (PDF) Click here for additional data file.
In general terms: A western blot detects proteins with antibodies after separation by electrophoresis.

In assay [2] the target is human angiotensin II (Ang II) type-1 receptor (hAT1R) with C-terminal c-myc tag, on CHO-K1 cells (human) (UniProt P30556). The experiment in a line: radioligand binding; [125I]Sar1,Ile8-Ang II, 0.05 nM to 20 nM, on hAT1R/CHO-K1 cells in 48-well plates; Ham's F12 with 1% BSA; 30 min at room temperature; Scatchard analysis; data not shown.
Another assay deals with rat AT1R. Also on record: method as in PMID 12969745. As to conditions: cited from earlier work.

Residues, ends and D or L forms follow the SMILES beside them.

By IC50 is commonly meant the concentration needed to halve the response being measured. High values mean lower potency, low ones higher potency. `CC[C@H](C)[C@H](NC(=O)[C@H](CCCNC(=N)N)NC(=O)[C@@H](N)CC(N)=O)C(=O)N[C@@H](Cc1ccc(O)cc1)C(=O)N[C@H](C(=O)N[C@@H](Cc1c[nH]cn1)C(=O)N1CCC[C@H]1C(=O)N[C@@H](Cc1ccccc1)C(=O)O)[C@@H](C)CC` [LI5-1] (H-NRIYIHPF-OH) came in with an IC50 in assay [1] of 16 nM.

Regarding `CC(C)C[C@H](NC(=O)[C@H](CCCNC(=N)N)NC(=O)[C@@H](N)Cc1c[nH]c2ccccc12)C(=O)N[C@@H](Cc1ccc(O)cc1)C(=O)N[C@@H](CC(C)C)C(=O)N[C@@H](Cc1c[nH]cn1)C(=O)N1CCC[C@H]1C(=O)N[C@@H](Cc1ccccc1)C(=O)O` [LI5-2] (H-WRLYLHPF-OH), the half-maximal inhibitory concentration (IC50) in assay [1] was found to be 75 nM.

For the compound `CC[C@H](C)[C@H](NC(=O)[C@@H]1CCCN1C(=O)[C@H](Cc1c[nH]cn1)NC(=O)[C@@H](NC(=O)[C@H](Cc1ccc(O)cc1)NC(=O)[C@H](CC(C)C)NC(=O)[C@H](CCCNC(=N)N)NC(=O)CN)[C@@H](C)CC)C(=O)O` [LII3-2] (H-GRLYIHPI-OH), the IC50 in assay [1] is 8.6 nM. Compared with the last compound, the IC50 is about 8.7-fold lower.

In assay [1], `CC[C@H](C)[C@H](NC(=O)[C@H](Cc1ccc(O)cc1)NC(=O)[C@H](Cc1ccccc1)NC(=O)[C@H](CCCNC(=N)N)NC(=O)[C@@H](N)CCC(N)=O)C(=O)N[C@@H](Cc1c[nH]cn1)C(=O)N1CCC[C@H]1C(=O)N[C@@H](CC(C)C)C(=O)O` [LII3-4] (H-QRFYIHPL-OH) returned an IC50 of 48 nM.

As to `CC[C@H](C)[C@H](NC(=O)[C@@H]1CCCN1C(=O)[C@H](Cc1c[nH]cn1)NC(=O)[C@@H](NC(=O)[C@H](Cc1ccc(O)cc1)NC(=O)[C@H](CC(C)C)NC(=O)[C@H](CCCCN)NC(=O)[C@@H](N)CCCNC(=N)N)[C@@H](C)CC)C(=O)O` [LII3-5] (H-RKLYIHPI-OH), the IC50 in assay [1] was found to be 7.6 nM.

By Kd is commonly meant the constant that tells how readily two partners part at equilibrium. Consider [125I]Sar1,Ile8-Ang II (peptide), for which, in assay [2], the Kd stood at 8.2 nM. In other words, the single-digit nanomolar range.

Consider “[Lys^2]Ang II (DKVYIHPF; Angiotensin-2; UniProt P01019 25-32, looked up, variant R2K) [Ang II analogue with Lys at position 2, from the literature]”, for which, in the assay on rat AT1R, the “affinity for rat AT1R relative to wild-type Ang II” value is reported as “lower than that of wild-type Ang II”.

The values are drawn from article PMC3254644, “DNA Display Selection of Peptide Ligands for a Full-Length Human G Protein-Coupled Receptor on CHO-K1 Cells” (PLoS ONE, 2012).
